The compounds below were run against MAPK14 (human) (UniProt Q16539) (assay: Inhibition of MAPK14 Kinase Activity).
Chain of MAPK14 (human) (Q16539 whole entry, looked up): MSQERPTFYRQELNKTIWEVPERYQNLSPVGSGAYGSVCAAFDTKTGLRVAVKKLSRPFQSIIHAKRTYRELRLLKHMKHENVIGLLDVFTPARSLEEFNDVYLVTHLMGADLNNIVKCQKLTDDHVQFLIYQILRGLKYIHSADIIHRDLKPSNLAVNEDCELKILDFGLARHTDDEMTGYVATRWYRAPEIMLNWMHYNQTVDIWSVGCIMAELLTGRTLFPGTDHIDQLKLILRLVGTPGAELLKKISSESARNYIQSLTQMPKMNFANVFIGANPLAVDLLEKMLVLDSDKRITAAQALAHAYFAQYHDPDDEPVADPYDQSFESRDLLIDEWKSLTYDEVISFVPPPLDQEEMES

SMILES | IC50 [nM]
CC[C@@H](CO)Nc1ncc2cc(Oc3ccc(F)cc3F)c(=O)n(C[C@H](C)O)c2n1 | 1 to 100
CNc1ncc2cc(Oc3ccc(F)cc3F)c(=O)n(C[C@@H](C)O)c2n1 | 1 to 100
CC[C@H](C)Nc1ncc2cc(Oc3ccc(F)cc3F)c(=O)n(C[C@H](C)O)c2n1 | 1 to 100
C[C@@H](O)Cn1c(=O)c(Oc2ccc(F)cc2F)cc2cnc(NC3CC3)nc21 | 1 to 100
C[C@@H](O)Cn1c(=O)c(Oc2ccc(F)cc2F)cc2cnc(NC3CCC3)nc21 | 1 to 100
C[C@H](O)Cn1c(=O)c(Oc2ccc(F)cc2F)cc2cnc(NC(CO)CO)nc21 | 1 to 100
C[C@H](O)CNc1ncc2cc(Oc3ccc(F)cc3F)c(=O)n(C[C@@H](C)O)c2n1 | 1 to 100
C[C@H](Nc1ncc2cc(Oc3ccc(F)cc3F)c(=O)n(C[C@@H](C)O)c2n1)C(C)(C)O | 1 to 100
C[C@@H](O)CNc1ncc2cc(Oc3ccc(F)cc3F)c(=O)n(C[C@@H](C)O)c2n1 | 1 to 100
C[C@H](O)Cn1c(=O)c(Oc2ccc(F)cc2F)cc2cnc(NC3CCCC3)nc21 | 1 to 100
C[C@@H](O)Cn1c(=O)c(Oc2ccc(F)cc2F)cc2cnc(NC3CCOCC3)nc21 | 1 to 100
O=c1c(Oc2ccc(F)cc2F)cc2cnc(NC3CCOCC3)nc2n1CCO | 1 to 100
CC[C@H](C)Nc1ncc2cc(Oc3ccc(F)cc3F)c(=O)n(C[C@@H](C)O)c2n1 | 1 to 100
C[C@H](O)Cn1c(=O)c(Oc2ccc(F)cc2F)cc2cnc(N[C@@H](C)CO)nc21 | 1 to 100
C[C@H](O)Cn1c(=O)c(Oc2ccc(F)cc2F)cc2cnc(N[C@H](CO)[C@@H](C)O)nc21 | 1 to 100
CC[C@@H](C)Nc1ncc2cc(Oc3ccc(F)cc3F)c(=O)n(C[C@H](C)O)c2n1 | 1 to 100
CC(C)Nc1ncc2cc(Oc3ccc(F)cc3F)c(=O)n(C[C@H](C)O)c2n1 | 1 to 100
C[C@H](O)CNc1ncc2cc(Oc3ccc(F)cc3F)c(=O)n(C[C@H](C)O)c2n1 | 1 to 100
C[C@@H](O)Cn1c(=O)c(Oc2ccc(F)cc2F)cc2cnc(NCC3CC3)nc21 | 1 to 100
C[C@@H](O)Cn1c(=O)c(Oc2ccc(F)cc2F)cc2cnc(NCC(C)(C)C)nc21 | 1 to 100
COC[C@H](C)Nc1ncc2cc(Oc3ccc(F)cc3F)c(=O)n(C[C@H](C)O)c2n1 | 1 to 100
C[C@H](O)Cn1c(=O)c(Oc2ccc(F)cc2F)cc2cnc(NC(CCO)CCO)nc21 | 1 to 100
CC[C@@H](C)Nc1ncc2cc(Oc3ccc(F)cc3F)c(=O)n(C[C@@H](C)O)c2n1 | 1 to 100

SMILES | IC50 [nM]
C[C@H](O)Cn1c(=O)c(Oc2ccc(F)cc2F)cc2cnc(NC3CCCCC3)nc21 | 1 to 100
COC[C@H](C)Nc1ncc2cc(Oc3ccc(F)cc3F)c(=O)n(C(CCO)CCO)c2n1 | 1 to 100
CC(=O)Cn1c(=O)c(Oc2ccc(F)cc2F)cc2cnc(N[C@@H](C)CO)nc21 | 1 to 100
CC(C)Nc1ncc2cc(Oc3ccc(F)cc3F)c(=O)n(C[C@@H](C)O)c2n1 | 1 to 100
C[C@H](O)Cn1c(=O)c(Oc2ccc(F)cc2F)cc2cnc(N[C@H](CO)CCO)nc21 | 1 to 100
C[C@H](O)Cn1c(=O)c(Oc2ccc(F)cc2F)cc2cnc(N[C@H](C)CO)nc21 | 1 to 100
C[C@@H](O)Cn1c(=O)c(Oc2ccc(F)cc2F)cc2cnc(N[C@@H](C)CO)nc21 | 1 to 100
C[C@H](O)Cn1c(=O)c(Oc2ccc(F)cc2F)cc2cnc(NC[C@@H](C)O)nc21 | 1 to 100
C[C@H](O)Cn1c(=O)c(Oc2ccc(F)cc2F)cc2cnc(NCC(C)(C)C)nc21 | 1 to 100
C[C@H](O)Cn1c(=O)c(Oc2ccc(F)cc2F)cc2cnc(NC3CCOCC3)nc21 | 1 to 100
C[C@H](O)Cn1c(=O)c(Oc2ccc(F)cc2F)cc2cnc(N[C@@H](CO)CCO)nc21 | 1 to 100
C[C@@H](O)Cn1c(=O)c(Oc2ccc(F)cc2F)cc2cnc(NC(C)(C)CO)nc21 | 1 to 100
C[C@H](O)Cn1c(=O)c(Oc2ccc(F)cc2F)cc2cnc(NC3CC3)nc21 | 1 to 100
COCCC(CCOC)Nc1ncc2cc(Oc3ccc(F)cc3F)c(=O)n(C[C@H](C)O)c2n1 | 1 to 100
CC(O)Cn1c(=O)c(Oc2ccc(F)cc2F)cc2cnc(NC3CCOCC3)nc21 (stereo unspecified) | 1 to 100
C[C@H](O)Cn1c(=O)c(Oc2ccc(F)cc2F)cc2cnc(NC(C)(C)CO)nc21 | 1 to 100
CCNc1ncc2cc(Oc3ccc(F)cc3F)c(=O)n(C[C@@H](C)O)c2n1 | 1 to 100
CC(C)CNc1ncc2cc(Oc3ccc(F)cc3F)c(=O)n(C[C@@H](C)O)c2n1 | 1 to 100
CC[C@H](CO)Nc1ncc2cc(Oc3ccc(F)cc3F)c(=O)n(C[C@H](C)O)c2n1 | 1 to 100
CC[C@H](CO)Nc1ncc2cc(Oc3ccc(F)cc3F)c(=O)n(C[C@@H](C)O)c2n1 | 1 to 100
CC(=O)Cn1c(=O)c(Oc2ccc(F)cc2F)cc2cnc(N[C@H](C)CO)nc21 | 1 to 100
C[C@H](O)Cn1c(=O)c(Oc2ccc(F)cc2F)cc2cnc(NC3CCN(S(C)(=O)=O)CC3)nc21 | 1 to 100
C[C@H](CO)Nc1ncc2cc(Oc3ccc(F)cc3F)c(=O)n(C[C@@H](C)O)c2n1 | 1 to 100

Source: the Kinase Knowledgebase extract (Sharma et al. 2016)
